Source: US20230414582A1, “METHODS OF TREATING DISEASES AND DISORDERS” (Curis, Inc., priority 2020, published 2023)
“Also recorded” adds a separate entry of the source.

How the values were obtained:
NF-κB p-p50 = test: Immunohistochemistry of NF-κB p-p50 in tumor biopsies of NHL patients treated with Compound 1; format: in vivo, human; conditions: paired biopsies before and after/during treatment with Compound 1 (3 cases)
Protocol: Formalin-fixed, paraffin-embedded sections of human tonsil and lymphoma were used. Tissue sections (5 μm) were deparaffinized, and antigen retrieval was carried out at 90-100° C. in citrate buffer for 10-40 min. The sections were incubated in 1% […] for 10 minutes to quench endogenous tissue peroxidase. Tissue sections were then incubated with primary NF-κB p-p50-specific antibody for 1 hour at room temperature. The primary NF-κB p-p50-specific antibody used NF-κB p-p50 (S337), sc-271908 from Santa Cruz Biotechnology. The slides were stained using a standard EnVision+System-HRP kit (DAKO, Carpinteria, CA) according to the manufacture's protocol. Immunohistochemical reactions were developed with diaminobenzidine as the chromogenic peroxidase substrate, and slides were counterstained with hematoxylin. Negative control samples included replacement of the primary antibody with nonimmune IgG1 (Dako).
Specifically, nuclear and/or cytoplasmic expression of NF-kappaB p-p50 was found in all 6 SD cases treated with 50 mg QD (2 cases, tumor regression), 50 mg BID (1 case), 200 BID (1 case, tumor regression) and 400 BID (2 cases). Expression of NF-kappaB p-p50 was not detected in 7 of 8 cases with PD including patients treated with 50 mg QD (1 case), 100 mg QD (1 case), 100 mg BID (3 cases), 200 mg BID (1 case) and 400 BID (1 case). […]

[1] = Phase 1 study of Compound 1 in AML or high risk MDS (NCT04278768): safety; format: in vivo; conditions: Cohort 1, 200 mg BID
Protocol: (§1) This study will be conducted in 2 parts: an initial dose escalation and dose expansion phase. […] Three patients with AML or MDS will be enrolled at the designated dose. If none of the first 3 patients experience a DLT during the first cycle, patients may be enrolled into the next higher dose level of 300 mg bid until a safe and effective RP2D is established.
(§2) This study is expected to enroll approximately 18 patients to establish the initial RP2D.
(§3) The major study inclusion and exclusion criteria are as follows: Relapsed or refractory AML (primary or secondary, including treatment-related) after at least one standard treatment (including chemotherapy, re-induction therapy or stem cell transplantation) based on the assessment of the investigator or high/very high risk relapsed/refractory MDS (IPSS-R criteria), following at least 6 cycles of hypomethylating agents [HMA] or evidence of early progression.

AML or high risk MDS = test: Phase 1 study of Compound 1 in AML or high risk MDS (NCT04278768): marrow response; format: in vivo, human; conditions: initial patients, 200 or 300 mg BID
Protocol: as §1, §2, §3

[2] = system: NF-kB p-p50 S337 in OCL-LY10 cells; test: Western blot of NF-kB p-p50 S337 in OCL-LY10 cells; format: cell-based; conditions: 3 μM and 10 μM, 48 h, vs DMSO
Protocol: (§4) At 48 h post-treatment, cell lysates were obtained. Protein sample concentration was quantified and equal amount 20 μg of whole protein extract was loaded in each well of SDS-polyacrylamide gel. Cell extracts were separated by 10% SDS-PAGE, transferred to nitrocellulose membrane, and probed as indicated. The following antibodies were used for immunoblot analysis: NF-kB p-p50 S337 (Santa Cruz Biotechnology) and b-actin (Cell Signaling Technology).

[3] = Phase I dose escalation trial of Compound 1 in NHL (NCT03328078): safety and tolerance; format: in vivo, human
Protocol: (§5) Seven dosing cohorts included 50 and 100 mg QD, and 50, 100, 200, 300, or 400 mg BID of daily continuous oral monotherapy in 21-Day cycles. Objective included safety and tolerance (primary), pk/pd and early efficacy (secondary), and biomarker correlations (exploratory). 31 patients with resistant or refractory, advanced NHL have been enrolled.

[4] = system: NF-kB p-p50 S337 in TF-1 cells; test: Western blot of NF-kB p-p50 S337 in TF-1 (AML) cells; format: cell-based; conditions: TF-1 cells (AML cells, FIG. 13B), 3 μM and 10 μM, 48 h, vs DMSO
Protocol: as §4

[5] = Oral pharmacokinetics of Compound 1 in humans (FIG. 7); format: in vivo, human
Excerpt: In summary, the oral pharmacokinetics of Compound 1 are desirable.

[6] = system: resistant or refractory, advanced NHL; test: Phase I dose escalation trial of Compound 1 in NHL (NCT03328078): tumor response; format: in vivo, human; conditions: patient with DLBCL-GCB; initial dose 200 mg bid, final dose 300 mg bid
Protocol: as §5

[7] = system: Waldenstrom's macroglobulinemia (WM); test: WM patient case on Compound 1 with intra-patient dose escalation: IgM, m-protein, response; format: in vivo, human
Protocol: The patient remained asymptomatic for over 4 years with a slow increase in m-protein and IgM during that time. By mid-2017 they started to experience increased fatigue. […] There was no evidence of CXCR4 genomic alteration. […] Several options were discussed including clinical trials and standard of care Bruton's tyrosine kinase inhibitor (BTKi) therapy.
Baseline testing in December 2018 included a bone marrow biopsy showing 5-10% involvement by WM, m-protein of 1.66 g/dL, IgM 2,801 mg/dL, and a computed tomography scan without pathological lymphadenopathy or hepatosplenomegaly. Quantitative immunoglobulins and serum protein electrophoresis were obtained each cycle to determine response to treatment (FIG. 1).
The patient initiated treatment at the first dose level, 50 mg. […] Using a standard 3+3 design the subsequent dose level, 100 mg po BID, was cleared per protocol. Considering evidence of response without noted toxicity, the patient was a candidate to escalate to 100 mg po BID starting with cycle 7 day 1 in April 2019. […] They reported a significant improvement in their quality of life with resolution of fatigue and returned to a rigorous daily exercise program that they had been unable to perform for the last 2 years due to WM-related symptoms. […]

[8] = system: Waldenstrom's macroglobulinemia (WM); test: Prior therapies of the WM patient (case history); format: in vivo, human

## Cc1cc(-c2nc(C(=O)Nc3cc4oc(N5CCOCC5)nc4nc3N3CC[C@@H](O)C3)co2)ccn1 [Compound 1]
NF-κB p-p50
  NF-κB phospho-p50 expression in tumor biopsies: significant downregulation; also recorded: inhibited
[1]; 3 patients with hr-MDS
  DLT 1st cycle: No DLT
[1]; C2
  dose reductions for Gr. 3 dizziness: 1
AML or high risk MDS
  marrow response: several marrow complete responses
[2]
  expression of NF-kB p-p50 S337 (Western blot): downregulated
[3]; 200 mg BID, N = 5
  Anemia, All Grades, [E]: [1]
  Neutropenia, All Grades, [E]: [3]
  Neutropenia, Grade 3 or Higher, [E]: [2]
[3]; 300 mg BID, N = 6
  Anemia, All Grades, [E]: [3]
  Neutropenia, All Grades, [E]: [5]
  Neutropenia, Grade 3 or Higher, [E]: [1]
[3]; 400 mg BID, N = 8
  Anemia, All Grades, [E]: [1]
  Anemia, Grade 3 or Higher, [E]: [1]
  Neutropenia, All Grades, [E]: [3]
  Thrombocytopenia, All Grades, [E]: [2]
  Thrombocytopenia, Grade 3 or Higher, [E]: [2]
[3]; 31 NHL patients, 50 mg QD to 400 mg BID
  tolerability overall: well tolerated; also recorded: good safety and tolerance
[3]; WM patient, 200 mg po BID, asymptomatic, resolved with exercise moderation
  creatine phosphokinase (CPK/CK) elevation: grade 2
[3]; WM patient, first dose level, 50 mg
  tolerability: tolerated therapy well without adverse events
[4]
  expression of NF-kB p-p50 S337 (Western blot): downregulated
[5]; human, plasma, oral administration
  half-life: ~6 h
[5]; multiple daily twice dose administration
  accumulation at steady state: Moderate accumulation
[5]; oral administration
  time of maximum plasma concentrations post dose: 0.5 to 8 h
[6]
  Tumor Reduction: 35%
[7]; 200 mg po BID, by the summer of 2019
  fatigue: completely resolved
[7]; cycles 7 and 8, 100 mg po BID
  response: stable disease

## rituximab
[8]; induction 375 mg/m^2 IV weekly for 8 weeks then maintenance, 2005-2007
  response: very good partial remission
[8]; retreatment 2011, numeric increase from 1476
  IgM: 2042 mg/dL
[8]; retreatment June-September 2011
  response: stable disease
